pIC50: −log10 of the molar value.
Target: T1, thioredoxin reductase (TrxR) (Escherichia coli, UniProt P0A9P4)
T1 construct: gene trxB
Test: DTNB reduction kinetic assay with Trx and NADPH in lysates of treated E. coli DSM […] cells
Format: cell-based

T1 sequence (P0A9P4 2-321): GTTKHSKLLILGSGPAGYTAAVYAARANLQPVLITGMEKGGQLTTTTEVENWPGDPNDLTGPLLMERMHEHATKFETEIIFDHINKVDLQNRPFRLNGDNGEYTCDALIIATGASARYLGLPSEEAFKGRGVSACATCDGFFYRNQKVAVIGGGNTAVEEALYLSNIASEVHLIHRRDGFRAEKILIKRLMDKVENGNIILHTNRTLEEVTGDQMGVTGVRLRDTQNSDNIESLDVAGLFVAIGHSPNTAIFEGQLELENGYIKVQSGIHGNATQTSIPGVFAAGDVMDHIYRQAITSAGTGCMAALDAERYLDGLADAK

Row | Compound | pIC50
1 | COCCn1[c]([Ag-][Cl])[n+](Cc2ccccn2)c2ccccc21 [2-Cl] | ~4.96
2 | CC(C)n1[c]([Ag-][I])[n+](Cc2ccccn2)c2ccccc21 [1-I] | ~5.22
3 | CC(C)n1[c]([Ag-][Cl])[n+](Cc2ccccn2)c2ccccc21 [1-Cl] | ~4.96
4 | COCCn1[c]([Ag-][I])[n+](Cc2ccccn2)c2ccccc21 [2-I] | ~5.22
